Laboratory results reported in the CheMixHub viscosity set.

Test: xn = mol fraction of the nth substance listed

CCC(=O)O + CCCCO
308.15 K, 101 kPa
Details | viscosity [mPa·s]
x1 = 0.0503 | 1.834
x1 = 0.1016 | 1.791
x1 = 0.1477 | 1.736
x1 = 0.1995 | 1.695
x1 = 0.301 | 1.556
x1 = 0.4 | 1.482
x1 = 0.5007 | 1.402
x1 = 0.5993 | 1.312
x1 = 0.7006 | 1.222
x1 = 0.7995 | 1.12
x1 = 0.9007 | 1.02

CCC(=O)O + Cc1ccccc1
viscosity [mPa·s], 101.33 kPa
Details | 293.15 K | 303.15 K | 308.15 K | 313.15 K | 323.15 K
x1 = 0.1231 | – | – | 0.5358 | – | –
x1 = 0.2366 | – | – | 0.5532 | – | –
x1 = 0.3487 | – | – | 0.5721 | – | –
x1 = 0.4523 | – | – | 0.597 | – | –
x1 = 0.5546 | – | – | 0.6271 | – | –
x1 = 0.6523 | – | – | 0.6628 | – | –
x1 = 0.7435 | – | – | 0.702 | – | –
x1 = 0.832 | – | – | 0.7411 | – | –
x1 = 0.9187 | – | – | 0.8128 | – | –
x2 = 0.0286 | 1.06 | 0.9144 | – | 0.8218 | 0.7431
x2 = 0.072 | 1.009 | 0.8713 | – | 0.7818 | 0.6965
x2 = 0.1175 | 0.967 | 0.8298 | – | 0.751 | 0.672
x2 = 0.1497 | 0.9304 | 0.7997 | – | 0.7176 | 0.6478
x2 = 0.2309 | 0.8623 | 0.7424 | – | 0.6663 | 0.5978
x2 = 0.3182 | 0.806 | 0.6911 | – | 0.6194 | 0.5682
x2 = 0.4118 | 0.7554 | 0.6539 | – | 0.5909 | 0.5342
x2 = 0.5137 | 0.7079 | 0.6205 | – | 0.5536 | 0.5047
x2 = 0.555 | 0.6938 | 0.6095 | – | 0.5469 | 0.4952
x2 = 0.6209 | 0.6768 | 0.5898 | – | 0.5292 | 0.4824
x2 = 0.6913 | 0.6606 | 0.5743 | – | 0.5131 | 0.4666
x2 = 0.7372 | 0.6419 | 0.5603 | – | 0.5035 | 0.4574
x2 = 0.787 | 0.6276 | 0.5507 | – | 0.494 | 0.4506
x2 = 0.8644 | 0.6088 | 0.5364 | – | 0.4799 | 0.4372
x2 = 0.9714 | 0.5928 | 0.5259 | – | 0.4684 | 0.4295

[F-].[Na+] + [2H]O[2H]
viscosity [mPa·s], 101 kPa
Details | 298.15 K | 308.15 K | 318.15 K
x1 = 0.0054 | 1.159 | 0.913 | 0.747
x1 = 0.0122 | 1.246 | 0.98 | 0.8
x1 = 0.0163 | 1.326 | 1.043 | 0.857

[K+].[O]=[Mn](=[O])(=[O])[O-] + [2H]O[2H]
viscosity [mPa·s], 101 kPa
Details | x1 = 0.0021 | x1 = 0.0034 | x1 = 0.0052 | x1 = 0.0062
298.15 K | 1.101 | 1.092 | 1.079 | 1.082
308.15 K | 0.873 | 0.861 | 0.853 | 0.85
318.15 K | 0.717 | 0.709 | 0.703 | 0.704
